# Measurements: PMC5882964, “Aspermerodione, a novel fungal metabolite with an unusual 2,6-dioxabicyclo[2.2.1]heptane skeleton, as an inhibitor of penicillin-binding protein 2a” (Scientific Reports, 2018)
# Target: T1, penicillin-binding protein 2a (PBP2a) (Staphylococcus aureus, UniProt Q7DHH4)
# T1 construct: gene mecA; residues 23-668, pET28a, from mecA of Staphylococcus aureus ATCC 43300
# Assay: microscale thermophoresis (MST) with labelled recombinant PBP2a
# T1 sequence (Q7DHH4 entry or part of it): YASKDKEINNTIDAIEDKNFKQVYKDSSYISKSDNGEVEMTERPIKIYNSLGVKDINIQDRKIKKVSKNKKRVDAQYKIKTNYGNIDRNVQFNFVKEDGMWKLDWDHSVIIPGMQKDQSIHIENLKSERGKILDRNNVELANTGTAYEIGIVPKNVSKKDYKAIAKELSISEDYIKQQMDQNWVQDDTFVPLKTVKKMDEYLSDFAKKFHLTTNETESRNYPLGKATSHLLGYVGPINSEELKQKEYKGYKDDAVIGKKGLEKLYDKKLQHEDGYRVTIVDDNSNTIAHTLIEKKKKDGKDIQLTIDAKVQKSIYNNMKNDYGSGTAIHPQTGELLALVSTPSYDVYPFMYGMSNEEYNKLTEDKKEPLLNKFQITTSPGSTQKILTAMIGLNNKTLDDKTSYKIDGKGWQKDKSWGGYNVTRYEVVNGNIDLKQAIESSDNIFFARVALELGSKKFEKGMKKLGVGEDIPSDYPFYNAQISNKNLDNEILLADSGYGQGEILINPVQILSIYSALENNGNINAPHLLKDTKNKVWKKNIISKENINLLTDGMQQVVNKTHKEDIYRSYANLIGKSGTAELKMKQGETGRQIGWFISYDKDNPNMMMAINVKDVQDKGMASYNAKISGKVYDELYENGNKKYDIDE
smiles,measurement,value
"COC(=O)C1=C[C@]2(C)C[C@@]34CC[C@H]5C(C)(C)C(=O)C=C[C@]5(C)[C@]35OC[C@]14[C@](C)(CC2=O)O5 [compound 1, aspermerodione]",Kd,18.4 ± 1.29 µM
